Test results taken from patent US7078059B2, “Treatment of bone diseases” (Shire Holdings AG, priority 2000, dated 2006).
Like-named read-outs stand apart in the source and are kept apart here.

How the values were obtained:
[1] = test system: osteoclast precursors in mouse bone marrow; conditions: for Relative TRAP 5b activities, Mean ± SD: relative to mean of baseline group; for Combined results on osteoclast differentiation (relative TRAP 5b activity), Mean ± SD: tables 4-6 combined, number 18 (LA 100) or 12; for Effect on osteoclast differentiation, in words: vs baseline with 1,25-dihydroxyvitamin D3; for Osteoclast differentiation: significance of activation/inhibition vs baseline
Description: A method known as mouse bone marrow culture system is the one most widely used to study osteoclast differentiation. Originally, this method was developed by Takahashi et al. (1988a). Osteoclast precursors in mouse bone marrow can be induced to form multinucleated osteoclast-like cells (MNC) in the presence of either an active metabolite of vitamin D3 (1,25(OH)2D3) or parathyroid hormone (PTH). […] They form pits on bone or dentine slices (Takahashi et al. 1988a, Hattersley and Chambers 1989, Shinar et al. 1990); they express high levels of tartrate-resistant acid phosphatase (TRAP) and calcitonin receptors (Takahashi et al. 1988b, Shinar et al. 1990); and they respond to calcitonin (Takahashi et al. 1988a) and prostaglandin E2 (Collins and Chambers 1992). Thus, the method is an ideal one with which to study both stimulators and inhibitors of osteoclast differentiation.
In the original culture system, the osteoclast formation was determined after an 8-day culture. In bone marrow, both non-adherent osteoclast precursors and stromal cells are present, the latter of which are needed to support osteoclast formation. The number of osteoclasts formed is generally determined by counting the number of TRAP-positive MNC containing at least three nuclei (Takahashi et al. 1988a).
We have modified the original assay so that we culture 1×10^6 mouse marrow cells/ml for 6 days. […] Instead of counting of the number of differentiated osteoclasts formed, we measured the amount of TRAP liberated from osteoclasts into the culture medium using a fast, simple TRAP immunoassay (Halleen et al. 1999) presentation in the Annual Meeting of the American Society for Bone and Mineral Research, Sep. 30-Oct. 4, 1999, in St. Louis, Mo., USA.
8-10-week old mice were killed with CO2. Tibia and femora were dissected free from adhering soft tissues. The bone ends were cut off with a scalpel and the marrow was flushed with α-Minimal Essential Medium (α-MEM, Gibco BRL, Paisley, UK) supplemented with 100 IU/ml penicillin and 100 μg/ml streptomycin. A 10 ml syringe with a 27 gauge needle was used for flushing. Cells were centrifuged at 600×G for 10 minutes and the cell pellet was resuspended in -MEM containing 10% fetal calf serum. Cells were allowed to attach to plastic for 2 h at 37° C. in a 5% CO2 incubator to allow removal of monocytes and macrophages. Nonadherent cells were duly removed, and the […] bone marrow cells were cultured in 24-well plates (1×10^6 cells/well=1 ml) for 6 days. Half of the media were changed at day 3 and the treatments replaced. At the end of the culture, the plates were fixed with 2% paraformaldehyde in PBS for 20 minutes. Osteoclast formation was determined by measuring TRAP activity from the culture media using the novel TRAP immunoassay (vide infra), where we use a polyclonal TRAP antiserum prepared in rabbits against purified human bone TRAP. The TRAP antibody was bound to anti-rabbit IgG coated microtiter wells (Gibco BRL, Paisley, UK), and medium TRAP was then bound to the antibody. The activity of bound TRAP was measured in sodium acetate buffer using pNPP as substrate.
In this study, the effect of the lanthanum (III) ion on osteoclast differentiation in the presence of 1,25-dihydroxyvitamin D3 was tested. The following sample groups were included: • Baseline (including vehicle) • Control (Baseline without 1,25-dihydroxyvitamin D3) • Baseline+100 ng/ml lanthanum • Baseline+500 ng/ml lanthanum • Baseline+1000 ng/ml lanthanum • Baseline+5000 ng/ml lanthanum • Baseline+15000 ng/ml lanthanum
Six replicates were included in each group, and the test was performed twice. Baseline without 1,25-dihydroxyvitamin D3 was used as a control to show the test system allows inhibition of osteoclast differentiation to be detected.

[2] = test system: iliac crest of growing immature dogs
Procedure: The specimens taken from the iliac crest of growing immature dogs were analysed. The group was divided into a control and treatment group. The treatment group received 1000 mg/Kg/day of lanthanum carbonate administered orally twice daily. The groups were run for 13 weeks, after which time samples of bone were taken vertically through the iliac crest, embedded in methyl methacrylate based resin, sectioned and stained with toluidine blue and Von Kossa stain.

[3] = test system: limb bud mesodermal cells; conditions: organoid cultures; cited from earlier work
osteoclasts = conditions: extracellular application; cited from earlier work
[4] = first osteoclast differentiation assay, with 1,25-dihydroxyvitamin D3, 6 days, LA number = ng/ml lanthanum
[5] = second osteoclast differentiation assay, with 1,25-dihydroxyvitamin D3, 6 days, LA number = ng/ml lanthanum

SMILES: O.O.O.O.O=C([O-])[O-].O=C([O-])[O-].O=C([O-])[O-].[La+3].[La+3] [LA 100, lanthanum carbonate tetrahydrate]
- Relative TRAP 5b activities, Mean ± SD [1, 4]: 0.87 ± 0.33
- Relative TRAP 5b activities, Mean ± SD [1, 5]: 0.54 ± 0.15(**)
- Combined results on osteoclast differentiation (relative TRAP 5b activity), Mean ± SD ([1]; LA number = ng/ml lanthanum): 0.70 ± 0.27 (**)
- Relative TRAP 5b activities, Mean ± SD ([1]; third osteoclast differentiation assay with LA 100 (100 ng/ml lanthanum)): 0.69 ± 0.21(*)

SMILES: O.O.O.O.O=C([O-])[O-].O=C([O-])[O-].O=C([O-])[O-].[La+3].[La+3] [LA 500, lanthanum carbonate tetrahydrate]
- Relative TRAP 5b activities, Mean ± SD [1, 4]: 0.71 ± 0.22
- Relative TRAP 5b activities, Mean ± SD [1, 5]: 1.07 ± 0.24
- Combined results on osteoclast differentiation (relative TRAP 5b activity), Mean ± SD ([1]; LA number = ng/ml lanthanum): 0.89 ± 0.29

SMILES: O.O.O.O.O=C([O-])[O-].O=C([O-])[O-].O=C([O-])[O-].[La+3].[La+3] [LA 1000, lanthanum carbonate tetrahydrate]
- Effect on osteoclast differentiation, in words ([1]; LA number = ng/ml lanthanum): decreases the formation of osteoclasts
- Relative TRAP 5b activities, Mean ± SD [1, 4]: 0.60 ± 0.25
- Relative TRAP 5b activities, Mean ± SD [1, 5]: 0.69 ± 0.21
- Combined results on osteoclast differentiation (relative TRAP 5b activity), Mean ± SD ([1]; LA number = ng/ml lanthanum): 0.65 ± 0.23 (**)

SMILES: O.O.O.O.O=C([O-])[O-].O=C([O-])[O-].O=C([O-])[O-].[La+3].[La+3] [LA 5000, lanthanum carbonate tetrahydrate]
- Relative TRAP 5b activities, Mean ± SD [1, 4]: 0.44 ± 0.06(*)
- Relative TRAP 5b activities, Mean ± SD [1, 5]: 0.56 ± 0.27(*)
- Combined results on osteoclast differentiation (relative TRAP 5b activity), Mean ± SD ([1]; LA number = ng/ml lanthanum): 0.50 ± 0.20 (***)

SMILES: O.O.O.O.O=C([O-])[O-].O=C([O-])[O-].O=C([O-])[O-].[La+3].[La+3] [LA 15000, lanthanum carbonate tetrahydrate]
- Relative TRAP 5b activities, Mean ± SD [1, 4]: 0.36 ± 0.27(*)
- Relative TRAP 5b activities, Mean ± SD [1, 5]: 0.25 ± 0.07(***)
- Combined results on osteoclast differentiation (relative TRAP 5b activity), Mean ± SD ([1]; LA number = ng/ml lanthanum): 0.30 ± 0.19 (***)

SMILES: O.O.O.O.O=C([O-])[O-].O=C([O-])[O-].O=C([O-])[O-].[La+3].[La+3] [LA, lanthanum carbonate tetrahydrate]
- Bone formation in growing dogs ([2]; dose of 2,000 mg/kg/day lanthanum): enhanced bone formation
- Bone volume and density compared to control animals ([2]; growing dogs, dose of 2,000 mg/kg/day lanthanum): significant increase
- Other bone parameters investigated, treated vs control group ([2]; growing immature dogs, 1000 mg/Kg/day of lanthanum carbonate orally twice daily, 13 weeks, iliac crest): no statistically significant difference
- Osteoclast differentiation ([1]; Dose 100 ng/ml): − −
- Osteoclast differentiation ([1]; Dose 500 ng/ml): 0
- Osteoclast differentiation ([1]; Dose 1000 ng/ml): − −
- Osteoclast differentiation ([1]; Dose 5000 ng/ml): − − −
- Osteoclast differentiation ([1]; Dose 15000 ng/ml): − − −
- Effect on osteoclast differentiation, in words ([1]; LA number = ng/ml lanthanum): inhibits osteoclast differentiation
- Calcium accumulation [3]: reduced calcium accumulation
- Endochondral mineralization [3]: inhibited endochondral mineralization
- Cytosolic calcium in osteoclasts (osteoclasts): concentration-dependant elevation of cytosolic calcium
